Test results taken from patent US11446269B2, “Methods of reducing or preventing oxidation of small dense LDL or membrane polyunsaturated fatty acids” (Amarin Pharmaceuticals Ireland Limited, priority 2014, dated 2022).

Tests used:
[1] = test system: sdLDL; test: Glucose-induced sdLDL oxidation, MDA/TBARS (Example 10); assay type: biochemical, human; conditions: glucose 200 mg/dL; for effect on glucose-induced sdLDL oxidation: 10.0 μM
Method: Vitamin E (α-tocopherol) purchased from Sigma-Aldrich was prepared in ethanol at 1.0 mM (ε=3.06×10^4 M^−1 cm^−1 at 294 nm) prior to experimental use. Test compounds were further diluted in ethanol or aqueous buffer as needed. Phosphate Buffered Saline (PBS) purchased from Sigma-Aldrich was prepared in double distilled water at 10 mM (138 mM NaCl, 2.7 mM KCl, pH 7.4). […] Lipid oxidation was measured by the colorimetric detection of malondialdehyde (MDA), a marker of oxidative stress.

[2] = test system: human sdLDL; test: Copper-induced sdLDL oxidation, TBARS (Example 7); assay type: biochemical; conditions: 1 hr; for effect on sdLDL oxidation: 10 μM, vs vehicle-treated controls
Method: (§1) An experiment to study the antioxidant effect of EPA in LDL and small dense […] performed. […] Fenofibrate, gemfibrozil, and niacin were purchased from Sigma-Aldrich. […] Vitamin E was also incubated with sample aliquots as a positive control.

[3] = test system: unfractionated LDL; test: Copper-induced oxidation of unfractionated LDL, TBARS (Example 7); assay type: biochemical, human; conditions: 10 μM, 1 hr, vs vehicle-treated controls
Method: as §1

[4] = Small angle x-ray diffraction of glucose- and peroxidation-induced cholesterol domain formation (Example 4); conditions: any time point (0, 72, 96 h), 1:30, glucose 200 mg/dL, vs control
Method: After centrifugal orientation, sample supernatants were aspirated and aluminum foil substrates, each supporting a single membrane pellet, were removed from the sedimentation cells. […] All x-ray diffraction experiments were conducted at 20° C., 74% relative humidity.
Oriented membrane samples were aligned at grazing incidence with respect to a collimated, mono-chromatic CuKα x-ray beam (Kα1 and Kα2 unresolved; λ=1.54 Å) produced by a Rigaku Rotaflex RU-200, high-brilliance microfocus generator (Rigaku-MSC, The Woodlands, Tex.) as previously described (Mason et al., Biophys. J., vol. 55(4), pages 769-778 (1989)).
Routines written in Origin 8.6 (OriginLab Corporation, Northampton, Mass.) were used to determine total peak area (associated with all diffraction peaks in a given pattern) against which the second-order cholesterol domain peak was normalized.

[5] = test system: unfractionated LDL; test: Copper-induced oxidation of unfractionated LDL, TBARS after 2 hr (Example 6); assay type: biochemical, human; conditions: 1.0 μM to 10.0 μM (data not shown)
Method: Venous blood was collected from healthy volunteers into vacutainer tubes containing sodium EDTA. […] Plasma and lipoprotein fractions were maintained at 4° C. and protected from excessive exposure to light. Prior to oxidation experiments, EDTA was removed from the lipoprotein fraction using PD-10 desalting columns (GE Healthcare, Piscataway N.J.). After equilibration of the column with phosphate buffered saline (PBS), 2.5 mL of the lipoprotein fraction was loaded on the column and the flow-through discarded. The lipoprotein was then eluted with 3 mL of PBS. The LDL fractions were further diluted with PBS to obtain a 100 μg/mL apoB100 concentration.

[6] = test system: human sdLDL; test: Copper-induced sdLDL oxidation, TBARS after 2 hr (Example 6); assay type: biochemical
Method: Venous blood was collected from healthy volunteers into vacutainer tubes containing sodium EDTA. Plasma was separated by centrifugation at 3000 g for 25 min at 4° C. and adjusted to a density of 1.020 g/mL with KBr. Triglyceride-rich lipoproteins (TGRL) and LDL fractions were then isolated by sequential centrifugation at 70,000 rpm at 4° C. in a Beckman LE-80 ultracentrifuge using a Beckman 50.4Ti rotor (Beckman Coulter, Inc., Fullerton, Calif.). The TGRL fraction (with a relative density of <1.020) was aspirated from the top of the centrifugate and discarded, leaving an LDL-enriched infranate (with a relative density of 1.020 to 1.063). The plasma LDL fraction was further fractionated into LDL1, LDL2, LDL3, and LDL4 (sdLDL) subfractions with relative densities of 1.020 to 1.035, 1.035 to 1.050, 1.050 to 1.063, and 1.063 to 1.075, respectively. The sdLDL subfraction was retained for additional experimentation. Plasma and lipoprotein fractions were maintained at 4° C. and protected from excessive exposure to light. Prior to oxidation experiments, EDTA was removed from the lipoprotein fraction using PD-10 desalting columns (GE Healthcare, Piscataway N.J.). After equilibration of the column with phosphate buffered saline (PBS), 2.5 mL of the lipoprotein fraction was loaded on the column and the flow-through discarded. The lipoprotein was then eluted with 3 mL of PBS. The LDL fractions were further diluted with PBS to obtain a 100 μg/mL apoB100 concentration.
LDL and sdLDL subfractions (0.6 mL each) were incubated with either 10 μL vehicle (ethanol) or 10 μL drug stock solution for 30 min to 1 hr at 37° C. Oxidation was initiated by the addition of 10 μM CuSO4. After 2 hr, 100 μL aliquots were removed from each subfraction and combined with 1.0 mL thiobarbituric acid (0.5%), 10 μL trichloroacetic acid (5%), 10 μL BHT (5 mg/mL in methanol), and 10 μL EDTA (5 mM). […]. Sample TBARS concentrations were determined spectrophotometrically by measuring sample absorbances against a standard curve derived from the hydrolysis of 1,1,3,3-tetramethoxypropane.

[7] = Glucose-induced membrane lipid peroxidation (LOOH, CHOD-iodide assay) in DLPC/cholesterol multilamellar vesicles (Example 4); assay type: biochemical; conditions: glucose 200 mg/dL
Method: Vitamin E (α-tocopherol) was also purchased from Sigma-Aldrich and prepared in ethanol at 1.0 mM (ε=3.06×10^4 M^−1 cm^−1 at 294 nm) just prior to experimental use. […] All test compounds were further diluted in ethanol or aqueous buffer as needed. Glucose was prepared in saline buffer (0.5 mM HEPES, 154 mM NaCl, pH 7.3) at 11.0 mM (200 mg/dL). CHOD-iodide color reagent (stock) was prepared, with slight modification, as described by from El-Saadani et al. (J. […] Samples were shell-dried under nitrogen gas and placed under vacuum for 1 h to remove residual solvent. […] Lipid suspensions were then vortexed for 3 min at ambient temperature to form MLVs. All MLV samples were subjected to time-dependent autoxidation by incubating at 37° C. in an uncovered, shaking water bath. This method allows lipid peroxidation to occur gradually without requiring the use of exogenous initiators. Small aliquots (5-100 μL) of each sample were removed, immediately following MLV preparation (0 hour) and after exposing samples to oxidative conditions for 72 or 96 hour, and combined with 1.0 mL of activated CHOD-iodide color reagent. Aliquot volume was reduced with each successive time point to ensure that spectrophotometric readings were within the optimal adsorption range. Test samples were covered and incubated in darkness at room temperature for at least 4 hr. Sample absorbances were then measured against a CHOD blank at 365 nm using a Beckman DU-640 spectrophotometer. The CHOD colorimetric assay is based on the oxidation of iodide (I^−) by lipid hydroperoxide (LOOH) to form triiodide (I3^−), the quantity of which is directly proportional to the amount of LOOH present in the lipid sample. The molar absorptivity (c) of I3^− is 2.46×10^4 M^−1 cm^−1 at 365 nm. […] The concentration of glucose selected was consistent with previous experimental studies of hyperglycemia under controlled laboratory conditions or observed in well-defined animal models of Type II diabetes following a glucose challenge. […] Values in FIG. 1 are mean±S.D. (N=6). EPA inhibited the peroxidative effects of glucose by 88% and 86% at 72 and 96 hours, respectively, which was highly significant (p<0.001) as compared to glucose treatment alone. […] Overall ANOVA—0 hour data: p=0.6655, F=0.4185; 72 hour data: p<0.0001, F=428.72; 96 hour data: p<0.0001, F=322.01.

[8] = X-ray diffraction of cholesterol domains in POPC/cholesterol model membranes, C/P 1.5:1 (Example 9); conditions: drug-to-phospholipid mole ratio 1:30, C/P 1.5:1
Method: Multilamellar vesicles (MLVs) were prepared as binary mixtures that include palmitoyloleoylphosphatidylcholine (POPC) (1.0 mg total phospholipid per sample) and cholesterol at an elevated cholesterol-to-phospholipid (C/P) mole ratio of 1.5:1. […] Samples were shell-dried under nitrogen gas and placed under vacuum for 3 hours to remove residual solvent at room temperature. After desiccation, each sample was resuspended in saline buffer (0.5 mM HEPES, 154 mM NaCl, pH 7.3) to yield a final phospholipid concentration of 2.5 mg/mL. Lipid suspensions were then vortexed for 3 minutes at ambient temperature to form MLVs.
Briefly, a 100 μL aliquot of each MLV preparation (containing 250 μg MLV) was transferred to a Lucite® sedimentation cell fitted with an aluminum foil substrate designed to collect MLVs into a single membrane pellet upon centrifugation. Samples were then loaded into a Sorvall AH-629 swinging bucket rotor (DuPont Corp., Wilmington, Del.) and centrifuged at 35,000 g, 5° C., for 90 minutes.
After centrifugal orientation, sample supernatants were aspirated and aluminum foil substrates, each supporting a single membrane pellet, were removed from the sedimentation cells. Sample pellets were dried for 5-10 minutes at ambient conditions, mounted onto curved glass supports, and placed in hermetically-sealed, brass or glass containers (for immediate analysis or temporary storage, respectively). All x-ray diffraction experiments were conducted at 20° C., 74% relative humidity. The latter was established by exposing membrane samples to saturated solutions of […] (K2C4H4O6.½H2O) for at least 1 hour prior to experimental analysis.
Oriented membrane samples were aligned at grazing incidence with respect to a collimated, mono-chromatic CuKα x-ray beam (Kα1 and Kα2 unresolved; λ=1.54 Å) produced by a Rigaku Rotaflex RU-200, high-brilliance microfocus generator (Rigaku-MSC, The Woodlands, Tex.) as previously described (Mason et al., Biophys. J., vol. 55(4), pages 769-778 (1989)). The samples were initially subjected to x-ray diffraction analysis at least 12 hours after formation of the membrane pellets and retested for up to several days. Analytical x-rays were generated by electron bombardment of a rotating copper anode and are filtered through a thin nickel foil to provide monochromatic radiation (λ=1.54 Å). Collimation of the x-ray beam was achieved using a single Franks mirror. […]
The d-space for any given membrane multi bilayer is a measurement of the unit cell periodicity of the membrane lipid bilayer (e.g., the distance from the center of one lipid bilayer to the next including surface hydration), and is calculated from Bragg's Law, hλ=2d sin θ, where h is the diffraction order, λ is the wavelength of the x-ray radiation (1.54 Å), d is the membrane lipid bilayer unit cell periodicity, and θ is the Bragg angle equal to one-half the angle between the incident beam and scattered beam.
The presence of cholesterol domains in a given membrane sample results in the production of distinct Bragg (diffraction) peaks having singular periodicity values of 34 and 17 Å (typically referred to as first- and second-order cholesterol domain peaks). Under the specific temperature and relative humidity conditions established for these experiments, the second-order, 17 Å cholesterol domain peak was well-delineated from other, neighboring cholesterol and phospholipid diffraction peaks and was thus used to quantitate relative cholesterol domain peak intensity. […]

## Cc1c(C)c2c(c(C)c1O)CC[C@@](C)(CCC[C@H](C)CCC[C@H](C)CCCC(C)C)O2 [vitamin E, α-tocopherol]
[1]
  effect on glucose-induced sdLDL oxidation: failed to inhibit sdLDL oxidation
[1]; vs glucose-treated controls
  increase in sdLDL oxidation: 63%
[2]
  effect on sdLDL oxidation: no significant effect
[3]
  effect on unfractionated LDL oxidation: no significant effect
[4]
  effect on cholesterol domain formation: no significant effect
[5]
  effect on LDL oxidation: did not inhibit LDL oxidation at any concentration
[6]; 1.0 μM to 10.0 μM
  effect on sdLDL oxidation: did not inhibit sdLDL oxidation except at the highest concentration
[6]; 10.0 μM, 10 μM CuSO4, vs vehicle
  reduction of TBARS levels: 26%
[7]; 72- and 96-hour time points, 1:30 drug-to-phospholipid mole ratio
  effect on LOOH formation / lipid peroxidation: no significant effect

## CC1(C)[C@@H](O[C@H]2O[C@H](C(=O)O)[C@@H](O)[C@H](O)[C@H]2O[C@@H]2O[C@H](C(=O)O)[C@@H](O)[C@H](O)[C@H]2O)CC[C@]2(C)[C@H]3C(=O)C=C4[C@@H]5C[C@@](C)(C(=O)O)CC[C@]5(C)CC[C@@]4(C)[C@]3(C)CC[C@@H]12 [Glyc, glycyrrhizin]
[8]
  reduction in cholesterol domain peaks vs vehicle: 54.9%

## CC(C)c1c(C(=O)Nc2ccccc2O)c(-c2ccccc2)c(-c2ccc(F)cc2)n1CC[C@@H](O)C[C@@H](O)CC(=O)O [ATM, Atorvastatin ortho- (o-) hydroxy (active) metabolite]
[7]; 1.0 μM, 96 hours
  antioxidant effect on glucose-induced LOOH formation: potent antioxidant effects

## Cc1ccc(C)c(OCCCC(C)(C)C(=O)O)c1 [Gemfibrozil, gemfibrozil]
[1]
  effect on glucose-induced sdLDL oxidation: did not inhibit
[8]
  % change Vs control (cholesterol domain peak intensity): 10.9 ± 43.3%
  effect on cholesterol domains: no significant changes in cholesterol domain size
[2]
  effect on sdLDL oxidation: no significant effect
[3]
  effect on unfractionated LDL oxidation: no significant effect

## CC(C)c1c(C(=O)Nc2ccccc2)c(-c2ccccc2)c(-c2ccc(F)cc2)n1CC[C@@H](O)C[C@@H](O)CC(=O)O [atorvastatin]
[2]
  effect on sdLDL oxidation: did not have any significant antioxidant activity
[2]; each agent at 10 μM, vs vehicle
  inhibition of sdLDL oxidation (TBARS formation): 0.1±7%
[3]
  effect on unfractionated LDL oxidation: did not have any significant antioxidant activity
